Source: US11166460B2, “α-amino acrylate microbicide, and preparation method therefor and uses thereof” (priority 2017, dated 2021)
≈ marks a conversion by molar mass, not a printed value. Where two headings read alike, the source gives them in different places.

Experiments:
Rhizoctonia cerealis = test: Fungicidal activity, fungi growth rate method, RC; type: cell-based; settings: Ceratobasidium cereale; 50 μg/mL; read-out: Fungicidal activity, inhibition, RC
[1] = tested on: Phytophthora infestans (Mont) de Bary; test: microbe, parasite or virus in culture; type: cell-based; settings: Phytophthora infestans
Botrytis cinerea = test: Fungicidal activity, fungi growth rate method, BC; type: cell-based; settings: Botrytis cinerea; 50 μg/mL; read-out: Fungicidal activity, inhibition, BC
Sclerotinia sclerotiorum = test: microbe, parasite or virus in culture; type: cell-based; settings: Sclerotinia sclerotiorum; for inhibition at 50 µg/mL: 50 μg/mL
Physalospora piricola = test: Fungicidal activity, fungi growth rate method, PP; type: cell-based; settings: 50 μg/mL; read-out: Fungicidal activity, inhibition, PP
wheat Gibberella zeae = test: microbe, parasite or virus in culture; type: cell-based; settings: Fusarium graminearum, read-out: Fungicidal activity, inhibition, GZ
Pellicularia sasakii = test: Fungicidal activity, fungi growth rate method, PS; type: cell-based; settings: 50 μg/mL; read-out: Fungicidal activity, inhibition, PS
Cercospora arachidicola = test: Fungicidal activity, fungi growth rate method, CA; type: cell-based; settings: Mycosphaerella arachidis, 50 μg/mL
[2] = tested on: tobacco mosaic virus (TMV); test: Anti-TMV inducing activity (induction mode), tobacco seedlings; type: in vivo; settings: Tobacco mosaic virus, read-out: Anti-TMV activity, Induction effect (inhibition), 100 μg/mL, tobacco seedlings
[3] = tested on: tobacco mosaic virus (TMV); test: Anti-TMV curative activity (treatment mode), live friction inoculation on tobacco seedlings; type: in vivo; settings: Tobacco mosaic virus, read-out: Anti-TMV activity, Curative effect (inhibition), 100 μg/mL, tobacco seedlings, checked on seventh day
[4] = tested on: tobacco mosaic virus (TMV); test: Anti-TMV protective activity (protection mode), live friction inoculation on tobacco seedlings; type: in vivo; settings: Tobacco mosaic virus, read-out: Anti-TMV activity, Protection effect (inhibition)
Alternaria solani = test: Fungicidal activity, fungi growth rate method, AS; type: cell-based; settings: Alternaria solani; 50 μg/mL; read-out: Fungicidal activity, inhibition, AS
[5] = tested on: tobacco mosaic virus (TMV); test: Anti-TMV inactivation activity (inactivation mode), compound mixed with TMV before inoculation of tobacco leaves; type: in vivo; settings: Tobacco mosaic virus, read-out: Anti-TMV activity, Inactivation effect (inhibition)
[6] = read-out: Fungicidal activity, inhibition, PI
[7] = read-out: Fungicidal activity, inhibition, SS
[8] = read-out: Fungicidal activity, inhibition, CA

## O=C(N/C(=C\c1ccccc1)C(=O)N1CCC(O)(c2ccc(Br)cc2)CC1)c1ccco1 [Compound 13, (Z)-N-[1-[[4-(4-bromophenyl)-4-hydroxy-1-piperidinyl]carbonyl]-2-phenylethenyl]-2-furamide]
Rhizoctonia cerealis
  inhibition at 50 µg/mL: 22%
[1]; [6]
  inhibition at 50 µg/mL: 27%
Botrytis cinerea
  inhibition at 50 µg/mL: 24%
Sclerotinia sclerotiorum; read-out: EC90 against S. sclerotiorum in vitro
  EC90: 195 µg/mL (≈ 394 µM)
Sclerotinia sclerotiorum; [7]
  inhibition at 50 µg/mL: 95%
other
  melting point: 138 to 140 °C
Physalospora piricola
  inhibition at 50 µg/mL: 16%
Wheat Gibberella zeae
  inhibition at 50 µg/mL: 33%
Pellicularia sasakii
  inhibition at 50 µg/mL: 21%
Cercospora arachidicola; [8]
  inhibition at 50 µg/mL: 16%
[2]
  inhibition at 100 µg/mL: 30%
[3]
  inhibition at 100 µg/mL: 47%
[4]
  inhibition at 100 µg/mL: 26%
Alternaria solani
  inhibition at 50 µg/mL: 15%
[5]
  inhibition at 100 µg/mL: 69%

## O=C(N/C(=C\c1ccccc1)C(=O)N1CCC(O)(c2ccc(Br)cc2)CC1)c1cccs1 [Compound 14, (Z)-N-[1-[[4-(4-bromophenyl)-4-hydroxy-1-piperidinyl]carbonyl]-2-phenylethenyl]-2-thiophenecarboxamide]
Rhizoctonia cerealis
  inhibition at 50 µg/mL: 8%
[1]; [6]
  inhibition at 50 µg/mL: 5%
Botrytis cinerea
  inhibition at 50 µg/mL: 24%
Sclerotinia sclerotiorum; read-out: Fungicidal activity (inhibition) against SS: Sclerotinia sclerotiorum
  inhibition at 50 µg/mL: 80 to 95%
Sclerotinia sclerotiorum; [7]
  inhibition at 50 µg/mL: 83%
other
  melting point: 134 to 136 °C
Physalospora piricola
  inhibition at 50 µg/mL: 0%
Wheat Gibberella zeae
  inhibition at 50 µg/mL: 7%
Pellicularia sasakii
  inhibition at 50 µg/mL: 3%
Cercospora arachidicola; [8]
  inhibition at 50 µg/mL: 7%
[2]
  inhibition at 100 µg/mL: 52%
[3]
  inhibition at 100 µg/mL: 39%
[4]
  inhibition at 100 µg/mL: 34%
Alternaria solani
  inhibition at 50 µg/mL: 17%
[5]
  inhibition at 100 µg/mL: 30%

## Cc1ccc(/C=C(\NC(=O)c2ccccc2)C(=O)N2CCC(O)(c3ccc(Br)cc3)CC2)cc1 [Compound 15, (Z)-N-[1-[[4-(4-bromophenyl)-4-hydroxy-1-piperidinyl]carbonyl]-2-(4-metylphenyl)ethenyl]benzamide]
Rhizoctonia cerealis
  inhibition at 50 µg/mL: 16%
[1]; [6]
  inhibition at 50 µg/mL: 21%
Botrytis cinerea
  inhibition at 50 µg/mL: 10%
Sclerotinia sclerotiorum; [7]
  inhibition at 50 µg/mL: 56%
other
  melting point: 234 to 236 °C
Physalospora piricola
  inhibition at 50 µg/mL: 7%
Wheat Gibberella zeae
  inhibition at 50 µg/mL: 10%
Pellicularia sasakii
  inhibition at 50 µg/mL: 12%
Cercospora arachidicola; [8]
  inhibition at 50 µg/mL: 13%
[2]
  inhibition at 100 µg/mL: 41%
[3]
  inhibition at 100 µg/mL: 20%
[4]
  inhibition at 100 µg/mL: 0%
Alternaria solani
  inhibition at 50 µg/mL: 17%
[5]
  inhibition at 100 µg/mL: 0%

## COc1ccc(/C=C(\NC(=O)c2ccccc2)C(=O)N2CCC(O)(c3ccc(Br)cc3)CC2)cc1 [Compound 16, (Z)-N-[1-[[4-(4-bromophenyl)-4-hydroxy-1-piperidinyl]carbonyl]-2-(4-methoxyphenyl)ethenyl]benzamide]
Rhizoctonia cerealis
  inhibition at 50 µg/mL: 13%
[1]; read-out: Fungicidal activity (inhibition) against PI: Phytophthora infestans (Mont) de Bary
  inhibition at 50 µg/mL: 33%
[1]; [6]
  inhibition at 50 µg/mL: 33%
Botrytis cinerea
  inhibition at 50 µg/mL: 29%
Sclerotinia sclerotiorum; [7]
  inhibition at 50 µg/mL: 67%
other
  melting point: 208 to 210 °C
Physalospora piricola
  inhibition at 50 µg/mL: 5%
Wheat Gibberella zeae
  inhibition at 50 µg/mL: 2%
Pellicularia sasakii
  inhibition at 50 µg/mL: 15%
Cercospora arachidicola; read-out: Fungicidal activity (inhibition) against CA: Cercospora arachidicola
  inhibition at 50 µg/mL: 55%
Cercospora arachidicola; [8]
  inhibition at 50 µg/mL: 55%
[2]
  inhibition at 100 µg/mL: 8%
[3]
  inhibition at 100 µg/mL: 0%
[4]
  inhibition at 100 µg/mL: 57%
Alternaria solani
  inhibition at 50 µg/mL: 23%
[5]
  inhibition at 100 µg/mL: 1%

## O=C(N/C(=C\c1ccc(F)cc1)C(=O)N1CCC(O)(c2ccc(Br)cc2)CC1)c1ccccc1 [Compound 17, (Z)-N-[1-[[4-(4-bromophenyl)-4-hydroxy-1-piperidinyl]carbonyl]-2-(4-fluorophenyl)ethenyl]-benzamide]
Rhizoctonia cerealis
  inhibition at 50 µg/mL: 10%
[1]; [6]
  inhibition at 50 µg/mL: 27%
Botrytis cinerea
  inhibition at 50 µg/mL: 10%
Sclerotinia sclerotiorum; [7]
  inhibition at 50 µg/mL: 67%
other
  melting point: 266 to 268 °C
Physalospora piricola
  inhibition at 50 µg/mL: 3%
Wheat Gibberella zeae
  inhibition at 50 µg/mL: 16%
Pellicularia sasakii
  inhibition at 50 µg/mL: 15%
Cercospora arachidicola; [8]
  inhibition at 50 µg/mL: 23%
[2]
  inhibition at 100 µg/mL: 3%
[3]
  inhibition at 100 µg/mL: 0%
[4]
  inhibition at 100 µg/mL: 33%
Alternaria solani
  inhibition at 50 µg/mL: 28%
[5]
  inhibition at 100 µg/mL: 1%
